Reference: patent publication US20210403420A1, “BENZOATE COMPOUND” (SCOHIA PHARMA, INC., priority 2018, published 2021)
Structures can show the parent of a compound that is named as a salt.

Key:
High fat diet-fed mice = test: Fecal protein concentration-increasing test using high fat diet-fed mouse; assay type: in vivo; settings: feces of first day of administration
Excerpt: Test Example 2: Fecal Protein Concentration-Increasing Test Using High Fat Diet-Fed Mouse
High fat diet-fed mice (D12451 diet, male, 10- to 50-week old) were orally administered with a 0.5% methyl cellulose suspension containing a test compound (compound administration group, five mice per group) or a 0.5% methyl cellulose suspension (compound non-administration group (vehicle group), five mice per group), and whole feces were collected on the first day of administration. Dried feces were dissolved in 0.5 N NaOH, followed by centrifugation at 12,000 rpm. The protein concentration in the supernatant was then quantitatively measured (Lowry method), and the amount of protein contained in 1 g of feces was calculated as the fecal protein concentration (mg/g feces). The fecal protein concentration-increasing rate was calculated by the following expression.
Fecal protein concentration-increasing rate (%)=Fecal protein concentration of compound administration group/Fecal protein concentration of vehicle group×100

[1] = biological target: T1, Human recombinant enteropeptidase (Homo sapiens, UniProt P98073); test: Human enteropeptidase inhibitory activity; assay type: biochemical; settings: 1 μM test compound; fluorescence intensity at 2 hours after start of reaction; read-out: Inhibition rate at 1 μM
T1 construct: purchased ITSI-Biosciences LLC #REN-260
Procedure: Test Example 1: Human Enteropeptidase Inhibitory Activity
Human recombinant enteropeptidase (#REN-260, ITSI-Biosciences LLC) was diluted with an assay buffer (50 mM Tricine, pH 8.0, 0.01 (w/v) %, Tween 20, 10 mM CaCl2)) to prepare a 24 mU/mL enzyme solution. Subsequently, 5FAM-Abu-Gly-Asp-Asp-Asp-Lys-Ile-Val-Gly-Gly-Lys(CPQ2)-Lys-Lys-NH2 (CPC Scientific Inc.) was diluted with the assay buffer to prepare a 2.1 μM substrate solution. A test compound is dissolved in DMSO into a 10 mM solution, and the solution was diluted with the assay buffer to give a compound solution. To a 384-well black plate (#784076, Greiner Bio-One), 5 μL of the compound solution and 5 μL of the substrate solution were added and mixed, and 5 μL of the enzyme solution was then added to the mixture, followed by mixing to start the reaction. The fluorescence intensity was measured with a fluorescence plate reader EnVision (The Perkin-Elmer Corp.) at an excitation wavelength of 485 nm and a fluorescence wavelength of 535 nm. The same reaction as above was performed without the addition of the test compound (test compound non-addition group). Furthermore, the same reaction as above was performed without the addition of the test compound and the enzyme (control group). The inhibition rate was calculated using the fluorescence intensity at 2 hours after the start of the reaction by the following expression:
Inhibition rate (%)=(1−((fluorescence intensity of test compound addition group)−(fluorescence intensity of control group))/((fluorescence intensity of test compound non-addition group)−(fluorescence intensity of control group)))×100

[2] = tested on: Diet-induced obesity (DIO) mice; test: Anti-obesity effect test using DIO mouse; assay type: in vivo; settings: for Body weight (g) At start of administration: average at start of administration; for Body weight (g) After 7-day administration: average; for Fecal protein concentration-increasing rate (%): feces of eighth day, vehicle = 100
Procedure: Test Example 3: Anti-Obesity Effect Test Using DIO Mouse
Diet-induced obesity (DIO) mice (D12451 diet, male, 26-week old) were orally administered with a 0.5% methyl cellulose suspension containing a test compound (30 mg/kg) (compound administration group, five mice per group) or a 0.5% methyl cellulose suspension (compound non-administration group (vehicle), five mice per group) once a day for seven days, and whole feces were collected on the eighth day of administration. Dried feces were dissolved in 0.5 N NaOH, followed by centrifugation at 12,000 rpm. The protein concentration in the supernatant was then quantitatively measured (Lowry method), and the amount of protein contained in 1 g of feces was calculated as the fecal protein concentration (mg/g feces). The fecal protein concentration-increasing rate was calculated by the following expression.
Fecal protein concentration-increasing rate (%)=Fecal protein concentration of compound administration group/Fecal protein concentration of vehicle group X 100
The fecal protein concentration-increasing rate and the averages of the body weights at the start of administration and after administration for seven days are shown in Table 6.
Also, DIO mice (D12451 diet, male, 59-week old) were orally administered with a 0.5% methyl cellulose suspension containing a test compound (20 mg/kg) (compound administration group, five mice per group) or a 0.5% methyl cellulose suspension (compound non-administration group (vehicle), five mice per group) once a day for seven days, and whole feces were collected on the eighth day of administration. The fecal protein concentration (mg/g feces) was calculated by the method described above. The fecal protein concentration-increasing rate and the averages of the body weights at the start of administration and after administration for seven days are shown in Table 7.

[3] = Mus musculus, po, 24 h, 30 mg/kg oral, vehicle group = 100, read-out: Fecal protein concentration-increasing rate
[4] = DIO mice 59-week old, 20 mg/kg oral once a day for seven days
[5] = DIO mice 26-week old, 30 mg/kg oral once a day for seven days

T1 sequence (P98073 whole entry): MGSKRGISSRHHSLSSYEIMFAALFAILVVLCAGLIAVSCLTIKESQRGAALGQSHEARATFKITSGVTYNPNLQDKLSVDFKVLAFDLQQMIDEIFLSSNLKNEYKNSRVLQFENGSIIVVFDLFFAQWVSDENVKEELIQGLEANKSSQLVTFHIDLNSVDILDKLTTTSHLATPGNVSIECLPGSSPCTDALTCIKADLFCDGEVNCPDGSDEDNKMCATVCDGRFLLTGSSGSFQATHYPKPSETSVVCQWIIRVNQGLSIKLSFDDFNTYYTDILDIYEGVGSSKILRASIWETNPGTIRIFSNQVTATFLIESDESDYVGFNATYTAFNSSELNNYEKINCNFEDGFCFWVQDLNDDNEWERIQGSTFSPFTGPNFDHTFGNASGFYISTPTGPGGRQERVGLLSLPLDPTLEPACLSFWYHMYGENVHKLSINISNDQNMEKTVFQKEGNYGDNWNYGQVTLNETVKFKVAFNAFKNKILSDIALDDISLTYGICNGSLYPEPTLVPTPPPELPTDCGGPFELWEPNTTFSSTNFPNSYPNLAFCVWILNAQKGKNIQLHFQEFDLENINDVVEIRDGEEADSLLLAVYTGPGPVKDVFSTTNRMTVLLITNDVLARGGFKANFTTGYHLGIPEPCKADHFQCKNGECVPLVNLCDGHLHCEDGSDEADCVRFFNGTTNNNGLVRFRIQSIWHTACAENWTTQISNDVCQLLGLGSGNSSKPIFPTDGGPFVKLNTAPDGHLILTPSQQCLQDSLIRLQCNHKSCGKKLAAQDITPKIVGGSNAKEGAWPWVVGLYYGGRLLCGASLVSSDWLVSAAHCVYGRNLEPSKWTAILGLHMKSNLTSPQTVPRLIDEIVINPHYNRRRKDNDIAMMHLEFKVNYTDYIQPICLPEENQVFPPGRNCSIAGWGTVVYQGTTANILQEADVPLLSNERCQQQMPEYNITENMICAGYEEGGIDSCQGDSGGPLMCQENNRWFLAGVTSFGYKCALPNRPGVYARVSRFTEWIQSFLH

For `N=C(N)Nc1ccc(C(=O)Oc2ccc(CCC(=O)N[C@H](CC(=O)O)C(=O)O)c(OCCOCCOCCOc3cc(OC(=O)c4ccc(NC(=N)N)cc4)ccc3CCC(=O)N[C@H](CC(=O)O)C(=O)O)c2)cc1` [Example 14, (2R)-2-[3-[2-[2-[2-[2-[2-[3-[[(1R)-1,2-Dicarboxyethyl]amino]-3-oxopropyl]-5-(4-guanidinobenzoyl)oxyphenoxy]ethoxy]ethoxy]ethoxy]-4-(4-guanidinobenzoyl)oxyphenyl]propanoylamino]butanedioic acid], the response vs control in vivo at 30 mg/kg (High fat diet-fed mice; [3]) was 171% and the inhibition at 1 µM [1] was 100%.
For `N=C(N)Nc1ccc(C(=O)Oc2cc(OCCOCCOCCOCCOCCOCCOCCOc3cc(OC(=O)c4ccc(NC(=N)N)cc4)cc(C(=O)N[C@@H](CC(=O)O)C(=O)O)c3)cc(C(=O)N[C@@H](CC(=O)O)C(=O)O)c2)cc1` [Example 3, (2S)-2-[[3-[2-[2-[2-[2-[2-[2-[2-[3-[[(1S)-1,2-Dicarboxyethyl]carbamoyl]-5-(4-guanidinobenzoyl)oxyphenoxy]ethoxy]ethoxy]ethoxy]ethoxy]ethoxy]ethoxy]ethoxy]-5-(4-guanidinobenzoyl)oxybenzoyl]amino]butanedioic acid], the response vs control in vivo at 30 mg/kg (High fat diet-fed mice; [3]) was 152% and the inhibition at 1 µM [1] was 98%.
Work on `N=C(N)Nc1ccc(C(=O)Oc2cc(OCCOCCOc3cc(OC(=O)c4ccc(NC(=N)N)cc4)cc(C(=O)N[C@@H](CC(=O)O)C(=O)O)c3)cc(C(=O)N[C@@H](CC(=O)O)C(=O)O)c2)cc1` [Example 8, (2S)-2-[[3-[2-[2-[3-[[(1S)-1,2-Dicarboxyethyl]carbamoyl]-5-(4-guanidinobenzoyl)oxyphenoxy]ethoxy]ethoxy]-5-(4-guanidinobenzoyl)oxybenzoyl]amino]butanedioic acid ditrifluoroacetate] yielded a response vs control in vivo at 30 mg/kg (High fat diet-fed mice; [3]) of 210% and an inhibition at 1 µM [1] of 100%.
`N=C(N)Nc1ccc(C(=O)Oc2cc(OCCOCCOCCOc3cc(OC(=O)c4ccc(NC(=N)N)cc4)cc(C(=O)N[C@@H](CC(=O)O)C(=O)O)c3)cc(C(=O)N[C@@H](CC(=O)O)C(=O)O)c2)cc1` [Example 1, (2S)-2-[[3-[2-[2-[2-[3-[[(1S)-1,2-Dicarboxyethyl]carbamoyl]-5-(4-guanidinobenzoyl)oxyphenoxy]ethoxy]ethoxy]ethoxy]-5-(4-guanidinobenzoyl)oxybenzoyl]amino]butanedioic acid ditrifluoroacetate] gave a response vs control in vivo at 30 mg/kg (High fat diet-fed mice; [3]) of 159% and an inhibition at 1 µM [1] of 98%.
In the case of `N=C(N)c1ccc(OC(=O)c2cc(OCCOCCOCCOc3cc(C(=O)N[C@@H](CC(=O)O)C(=O)O)cc(C(=O)Oc4ccc(C(=N)N)cc4)c3)cc(C(=O)N[C@@H](CC(=O)O)C(=O)O)c2)cc1` [Example 7, (2S)-2-[[3-(4-Carbamimidoylphenoxy)carbonyl-5-[2-[2-[2-[3-(4-carbamimidoylphenoxy)carbonyl-5-[[(1S)-1,2-dicarboxyethyl]carbamoyl]phenoxy]ethoxy]ethoxy]ethoxy]benzoyl]amino]butanedioic acid ditrifluoroacetate], the response vs control in vivo at 30 mg/kg (High fat diet-fed mice; [3]) was 115% and the inhibition at 1 µM [1] was 100%.
`N=C(N)Nc1ccc(C(=O)Oc2cc(OCCOCCOCCOc3cc(OC(=O)c4ccc(NC(=N)N)cc4)cc(C(=O)N[C@H](CCCCN)C(=O)O)c3)cc(C(=O)N[C@H](CCCCN)C(=O)O)c2)cc1` [Example 11, (2R)-6-Amino-2-[[3-[2-[2-[2-[3-[[(1R)-5-amino-1-carboxypentyl]carbamoyl]-5-(4-guanidinobenzoyl)oxyphenoxy]ethoxy]ethoxy]ethoxy]-5-(4-guanidinobenzoyl)oxybenzoyl]amino]hexanoic acid] showed a response vs control in vivo at 30 mg/kg (High fat diet-fed mice; [3]) of 171% and an inhibition at 1 µM [1] of 60%.
In the case of `N=C(N)Nc1ccc(C(=O)Oc2ccc(C(=O)N[C@H](CC(=O)O)C(=O)O)c(OCCOc3cc(OC(=O)c4ccc(NC(=N)N)cc4)ccc3C(=O)N[C@H](CC(=O)O)C(=O)O)c2)cc1` [Example 22, (2R)-2-[[2-[2-[2-[[(1R)-1,2-Dicarboxyethyl]carbamoyl]-5-(4-guanidinobenzoyl)oxyphenoxy]ethoxy]-4-(4-guanidinobenzoyl)oxybenzoyl]amino]butanedioic acid dihydrochloride], the “Body weight (g) At start of administration” value ([2]; DIO mice 59-week old, 20 mg/kg group) was 56.5 g, the “Body weight (g) After 7-day administration” value [2, 4] was 55.1 g and the “Fecal protein concentration-increasing rate (%)” value [2, 4] was 221%.
Molecule `N=C(N)Nc1ccc(C(=O)Oc2ccc(OCCOCCOc3ccc(OC(=O)c4ccc(NC(=N)N)cc4)cc3C(=O)N[C@H](CC(=O)O)C(=O)O)c(C(=O)N[C@H](CC(=O)O)C(=O)O)c2)cc1` [Example 19, (2R)-2-[[2-[2-[2-[2-[[(1R)-1,2-Dicarboxyethyl]carbamoyl]-4-(4-guanidinobenzoyl)oxyphenoxy]ethoxy]ethoxy]-5-(4-guanidinobenzoyl)oxybenzoyl]amino]butanedioic acid] has a response vs control in vivo at 30 mg/kg (High fat diet-fed mice; [3]) of 215% and an inhibition at 1 µM [1] of 100%.
`N=C(N)Nc1ccc(C(=O)Oc2cc(OCCOCCOc3cc(OC(=O)c4ccc(NC(=N)N)cc4)cc(C(=O)NCCS(=O)(=O)O)c3)cc(C(=O)NCCS(=O)(=O)O)c2)cc1` [Example 20, 2-[[3-(4-Guanidinobenzoyl)oxy-5-[2-[2-[3-(4-guanidinobenzoyl)oxy-5-(2-sulfoethylcarbamoyl)phenoxy]ethoxy]ethoxy]benzoyl]amino]ethanesulfonic acid ditrifluoroacetate] was tested, and the response vs control in vivo at 10 mg/kg (High fat diet-fed mice; Mus musculus, po, 24 h, 10 mg/kg oral, vehicle group = 100, read-out: Fecal protein concentration-increasing rate) was 143% and the inhibition at 1 µM [1] was 99%.
With `N=C(N)Nc1ccc(C(=O)Oc2cc(OCCOCCOc3cc(OC(=O)c4ccc(NC(=N)N)cc4)cc(C(=O)N[C@@H](CC(=O)O)C(=O)O)c3)cc(C(=O)N[C@@H](CC(=O)O)C(=O)O)c2)cc1` [Example 17, (2S)-2-[[3-[2-[2-[3-[[(1S)-1,2-Dicarboxyethyl]carbamoyl]-5-(4-guanidinobenzoyl)oxyphenoxy]ethoxy]ethoxy]-5-(4-guanidinobenzoyl)oxybenzoyl]amino]butanedioic acid dihydrochloride] the “Body weight (g) At start of administration” value ([2]; DIO mice 26-week old, 30 mg/kg group) was 45.6 g, the “Body weight (g) After 7-day administration” value [2, 5] was 44.3 g and the “Fecal protein concentration-increasing rate (%)” value [2, 5] was 252%.
For `N=C(N)Nc1ccc(C(=O)Oc2ccc(CCC(=O)N[C@@H](CC(=O)O)C(=O)O)c(OCCOCCOCCOc3cc(OC(=O)c4ccc(NC(=N)N)cc4)ccc3CCC(=O)N[C@@H](CC(=O)O)C(=O)O)c2)cc1` [Example 4, (2S)-2-[3-[2-[2-[2-[2-[2-[3-[[(1S)-1,2-Dicarboxyethyl]amino]-3-oxopropyl]-5-(4-guanidinobenzoyl)oxyphenoxy]ethoxy]ethoxy]ethoxy]-4-(4-guanidinobenzoyl)oxyphenyl]propanoylamino]butanedioic acid ditrifluoroacetate], the “Fecal protein concentration-increasing rate” value (High fat diet-fed mice; 30 mg/kg oral, vehicle group = 100, ditrifluoroacetate) was 181%.
